Laboratory results from patent US20240122865A1, “Methods of Protecting RNA” (Pfizer Inc., priority 2021, published 2024).

Experiments:
Assay type in all cases: biochemical, Trichoderma atroviride
Chi18 model RNA [1] = assay: TapeStation Assay, Chi18 model RNA; parameters: Conc. chi18#1 / Conc. chi18#2: unit not given here; conditions: for % Control N = 1 / % Control N = 2 / % Control Avg.: Chi18 RNA, 20 mM amino acids, 50 mM CAPS pH 11, 50° C. 15 min; for % Control N = 1 / % Control N = 2: vs Time 0; for % Control Avg.: vs Time 0, Avg N=2; for Conc. chi18#1: 20 mM amino acids in 50 mM CAPS pH 11, run #1
Summary of the method: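 Chi18 or FgenL model RNA at 50 ng/μL in 50 mM CAPS pH 11 was mixed with amino acids (stocks in CAPS, readjusted to >pH 11) and heated at 50° C for 0 or 15 minutes; time-0 samples stayed on ice. Intact RNA was measured by capillary electrophoresis with optical detection and compared with a no-degradation baseline.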

FgenL mRNA construct = assay: Size Exclusion Base Hydrolysis Degradation Assay, FgenL; conditions: 25 mM amino acid; for T0 R1 peak area at 250 nm: FgenL 0.1 mg/mL, 50 mM CAPS, T=0, replicate 1; for T2 Avg, peak area as percentage of T=0 / T2 R1 peak area at 250 nm / T10 Avg, peak area as percentage of T=0 / T10 R1 peak area at 250 nm / T24 Avg, peak area as percentage of T=0 / T24 R1 peak area at 250 nm / T0 Avg, peak area as percentage of T=0: FgenL; for T2 Avg, peak area as percentage of T=0 / T2 R1 peak area at 250 nm / T10 Avg, peak area as percentage of T=0 / T10 R1 peak area at 250 nm / T24 Avg, peak area as percentage of T=0 / T24 R1 peak area at 250 nm: 50 mM CAPS pH 11, room temperature; for T2 Avg, peak area as percentage of T=0 / T2 R1 peak area at 250 nm: 2 hrs; for T2 R1 peak area at 250 nm / T10 R1 peak area at 250 nm / T24 R1 peak area at 250 nm: replicate 1; for T10 Avg, peak area as percentage of T=0 / T10 R1 peak area at 250 nm: 10 hrs; for T24 Avg, peak area as percentage of T=0 / T24 R1 peak area at 250 nm: 24 hrs; for T0 Avg, peak area as percentage of T=0: T=0 (reference)
Summary of the method: (§1)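 mRNA (diluted to 1.0 mg/mL) preincubated 1 h with amino acid, then brought to pH 11 with CAPS and NaOH at room temperature. Intact mRNA quantified by size-exclusion UPLC, peak area at 250 nm in the T=0 elution window, expressed as percentage of T=0 at 2, 10 and 24 hrs.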

Chi18 mRNA construct = assay: Size Exclusion Base Hydrolysis Degradation Assay, Chi18; conditions: for T0 R1 peak area at 250 nm: Chi18 0.1 mg/mL, 25 mM amino acid, 50 mM CAPS, T=0, replicate 1; for T2 Avg, peak area as percentage of T=0 / T2 R1 peak area at 250 nm / T10 Avg, peak area as percentage of T=0 / T10 R1 peak area at 250 nm / T24 Avg, peak area as percentage of T=0 / T24 R1 peak area at 250 nm / T0 Avg, peak area as percentage of T=0: Chi18, 25 mM amino acid; for T2 Avg, peak area as percentage of T=0 / T2 R1 peak area at 250 nm / T10 Avg, peak area as percentage of T=0 / T10 R1 peak area at 250 nm / T24 Avg, peak area as percentage of T=0 / T24 R1 peak area at 250 nm: 50 mM CAPS pH 11, room temperature; for T2 Avg, peak area as percentage of T=0 / T2 R1 peak area at 250 nm: 2 hrs; for T2 R1 peak area at 250 nm / T10 R1 peak area at 250 nm / T24 R1 peak area at 250 nm: replicate 1; for T10 Avg, peak area as percentage of T=0 / T10 R1 peak area at 250 nm: 10 hrs; for T24 Avg, peak area as percentage of T=0 / T24 R1 peak area at 250 nm: 24 hrs; for T0 Avg, peak area as percentage of T=0: T=0 (reference)
Summary of the method: as §1

Chi18 model RNA [2] = assay: Droplet Digital Polymerase Chain Reaction (ddPCR) Assay, Chi18; conditions: percent protection, pH 11.0, 30° C., 16 hours, n = 2
Summary of the method: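 Chi18 (25 fg/μL) or FgenL (10 fg/μL) RNA at pH 11.0 incubated 16 h with amino acids (10-point half-log series, ~300 mM top stock in CAPS), at 30° C or 44° C respectively. Intact RNA reverse-transcribed, ddPCR 5′-positive droplet fraction taken as protection; EC50 from four-parameter logistic fit.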

FgenL model RNA = conditions: percent protection, pH 11.0, 44° C., 16 hours, n = 2
[3] = intact Chi18 RNA after 15 min at 50° C.

C[C@@H](O)[C@H](N)C(=O)O [Threonine]
% Control N = 1 (Chi18 model RNA [1]): 51.4%
% Control N = 2 (Chi18 model RNA [1]): 40.8%
% Control Avg. (Chi18 model RNA [1]): 46.1%
Conc. chi18#1 (Chi18 model RNA [1]; [3]): 27.4
Conc. chi18#2 (Chi18 model RNA [1]; intact Chi18 RNA after 15 min at 50° C., 20 mM amino acids in 50 mM CAPS pH 11, run #2): 21.6
T0 R1 peak area at 250 nm (FgenL mRNA construct): 17711
T2 Avg, peak area as percentage of T=0 (FgenL mRNA construct): 47.3%
T2 R1 peak area at 250 nm (FgenL mRNA construct): 8436
T10 Avg, peak area as percentage of T=0 (FgenL mRNA construct): 2.6%
T10 R1 peak area at 250 nm (FgenL mRNA construct): 904
T24 Avg, peak area as percentage of T=0 (FgenL mRNA construct): 0.0%
T24 R1 peak area at 250 nm (FgenL mRNA construct): 0
T0 Avg, peak area as percentage of T=0 (FgenL mRNA construct): 100.0%
T0 R1 peak area at 250 nm (Chi18 mRNA construct): 39202
T2 Avg, peak area as percentage of T=0 (Chi18 mRNA construct): 74.6%
T2 R1 peak area at 250 nm (Chi18 mRNA construct): 28759
T10 Avg, peak area as percentage of T=0 (Chi18 mRNA construct): 26.0%
T10 R1 peak area at 250 nm (Chi18 mRNA construct): 10963
T24 Avg, peak area as percentage of T=0 (Chi18 mRNA construct): 0.0%
T24 R1 peak area at 250 nm (Chi18 mRNA construct): 0
T0 Avg, peak area as percentage of T=0 (Chi18 mRNA construct): 100.0%
EC50 (Chi18 model RNA [2]): > 30 mM
EC50 (FgenL model RNA): > 30 mM

N[C@@H](Cc1c[nH]c2ccccc12)C(=O)O [Tryptophan]
% Control N = 1 (Chi18 model RNA [1]): 2.9%
% Control N = 2 (Chi18 model RNA [1]): 2.9%
% Control Avg. (Chi18 model RNA [1]): 2.9%
Conc. chi18#1 (Chi18 model RNA [1]; [3]): 1.57
T0 R1 peak area at 250 nm (FgenL mRNA construct): 15191
T2 Avg, peak area as percentage of T=0 (FgenL mRNA construct): 30.2%
T2 R1 peak area at 250 nm (FgenL mRNA construct): 4991
T10 Avg, peak area as percentage of T=0 (FgenL mRNA construct): 0.0%
T10 R1 peak area at 250 nm (FgenL mRNA construct): 0
T24 Avg, peak area as percentage of T=0 (FgenL mRNA construct): 0.0%
T24 R1 peak area at 250 nm (FgenL mRNA construct): 0
T0 Avg, peak area as percentage of T=0 (FgenL mRNA construct): 100.0%
T0 R1 peak area at 250 nm (Chi18 mRNA construct): 8974
T2 Avg, peak area as percentage of T=0 (Chi18 mRNA construct): 78.0%
T2 R1 peak area at 250 nm (Chi18 mRNA construct): 7000
T10 Avg, peak area as percentage of T=0 (Chi18 mRNA construct): 47.7%
T10 R1 peak area at 250 nm (Chi18 mRNA construct): 3243
T24 Avg, peak area as percentage of T=0 (Chi18 mRNA construct): 0.0%
T24 R1 peak area at 250 nm (Chi18 mRNA construct): 0
T0 Avg, peak area as percentage of T=0 (Chi18 mRNA construct): 100.0%
EC50 (Chi18 model RNA [2]): > 30 mM
EC50 (FgenL model RNA): > 30 mM

N[C@@H](Cc1ccc(O)cc1)C(=O)O [Tyrosine]
% Control N = 1 (Chi18 model RNA [1]): 31.9%
% Control N = 2 (Chi18 model RNA [1]): 31.9%
% Control Avg. (Chi18 model RNA [1]): 31.9%
Conc. chi18#1 (Chi18 model RNA [1]; [3]): 17
T0 R1 peak area at 250 nm (FgenL mRNA construct): 22082
T2 Avg, peak area as percentage of T=0 (FgenL mRNA construct): 64.7%
T2 R1 peak area at 250 nm (FgenL mRNA construct): 13039
T10 Avg, peak area as percentage of T=0 (FgenL mRNA construct): 15.0%
T10 R1 peak area at 250 nm (FgenL mRNA construct): 1912
T24 Avg, peak area as percentage of T=0 (FgenL mRNA construct): 5.6%
T24 R1 peak area at 250 nm (FgenL mRNA construct): 912
T0 Avg, peak area as percentage of T=0 (FgenL mRNA construct): 100.0%
T0 R1 peak area at 250 nm (Chi18 mRNA construct): 21493
T2 Avg, peak area as percentage of T=0 (Chi18 mRNA construct): 90.9%
T2 R1 peak area at 250 nm (Chi18 mRNA construct): 22110
T10 Avg, peak area as percentage of T=0 (Chi18 mRNA construct): 56.8%
T10 R1 peak area at 250 nm (Chi18 mRNA construct): 14946
T24 Avg, peak area as percentage of T=0 (Chi18 mRNA construct): 37.6%
T24 R1 peak area at 250 nm (Chi18 mRNA construct): 10375
T0 Avg, peak area as percentage of T=0 (Chi18 mRNA construct): 100.0%
EC50 (Chi18 model RNA [2]): > 30 mM
EC50 (FgenL model RNA): > 30 mM

CC(C)[C@H](N)C(=O)O [Valine]
% Control N = 1 (Chi18 model RNA [1]): 32.5%
% Control N = 2 (Chi18 model RNA [1]): 32.5%
% Control Avg. (Chi18 model RNA [1]): 32.5%
Conc. chi18#1 (Chi18 model RNA [1]; [3]): 17.3
T0 R1 peak area at 250 nm (FgenL mRNA construct): 17745
T2 Avg, peak area as percentage of T=0 (FgenL mRNA construct): 22.8%
T2 R1 peak area at 250 nm (FgenL mRNA construct): 4305
T10 Avg, peak area as percentage of T=0 (FgenL mRNA construct): 0.0%
T10 R1 peak area at 250 nm (FgenL mRNA construct): 0
T24 Avg, peak area as percentage of T=0 (FgenL mRNA construct): 0.0%
T24 R1 peak area at 250 nm (FgenL mRNA construct): 0
T0 Avg, peak area as percentage of T=0 (FgenL mRNA construct): 100.0%
T0 R1 peak area at 250 nm (Chi18 mRNA construct): 29804
T2 Avg, peak area as percentage of T=0 (Chi18 mRNA construct): 56.7%
T2 R1 peak area at 250 nm (Chi18 mRNA construct): 12369
T10 Avg, peak area as percentage of T=0 (Chi18 mRNA construct): 0.0%
T10 R1 peak area at 250 nm (Chi18 mRNA construct): 0
T24 Avg, peak area as percentage of T=0 (Chi18 mRNA construct): 0.0%
T24 R1 peak area at 250 nm (Chi18 mRNA construct): 0
T0 Avg, peak area as percentage of T=0 (Chi18 mRNA construct): 100.0%
EC50 (Chi18 model RNA [2]): > 30 mM
EC50 (FgenL model RNA): > 30 mM
